Measured values taken from PubChem BioAssay (NCI).
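Protocol summary: plate cells (96-well), add compound at 5 concentrations, incubate 48 h, interpolate endpoints linearly. GI50 = concentration required for 50% inhibition of growth. TGI: total growth inhibition.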

What was measured:
Test in all cases: inhibition of tumour cell growth, NCI panel, 48 h
RXF 393 renal = system: RXF 393 renal
MOLT-4 leukemia = system: MOLT-4 leukemia
SNB-19 CNS = system: SNB-19 CNS
RPMI-8226 leukemia = system: RPMI-8226 leukemia
SNB-75 CNS = system: SNB-75 CNS
ACHN renal = system: ACHN renal
IGROV1 ovarian = system: IGROV1 ovarian
SF-295 CNS = system: SF-295 CNS
OVCAR-4 ovarian = system: OVCAR-4 ovarian
HT29 colon = system: HT29 colon
K-562 leukemia = system: K-562 leukemia
MCF7 breast = system: MCF7 breast
OVCAR-5 ovarian = system: OVCAR-5 ovarian
A549 NSCLC = system: A549 NSCLC
HOP-92 NSCLC = system: HOP-92 NSCLC
MDA-MB-231 breast = system: MDA-MB-231 breast
SF-268 CNS = system: SF-268 CNS
U251 CNS = system: U251 CNS
EKVX NSCLC = system: EKVX NSCLC
SN12C renal = system: SN12C renal
HOP-62 NSCLC = system: HOP-62 NSCLC
OVCAR-3 ovarian = system: OVCAR-3 ovarian
SK-OV-3 ovarian = system: SK-OV-3 ovarian
MALME-3M melanoma = system: MALME-3M melanoma
TK-10 renal = system: TK-10 renal
M14 melanoma = system: M14 melanoma
HCT-15 colon = system: HCT-15 colon
A498 renal = system: A498 renal
HL-60(TB) leukemia = system: HL-60(TB) leukemia
HCT-116 colon = system: HCT-116 colon
UACC-62 melanoma = system: UACC-62 melanoma
CCRF-CEM leukemia = system: CCRF-CEM leukemia
MDA-MB-435 = system: MDA-MB-435
PC-3 prostate = system: PC-3 prostate
HCC-2998 colon = system: HCC-2998 colon
OVCAR-8 ovarian = system: OVCAR-8 ovarian
SF-539 CNS = system: SF-539 CNS
NCI-H460 lung = system: NCI-H460 lung
786-0 renal = system: 786-0 renal
SW-620 colon = system: SW-620 colon
KM12 colon = system: KM12 colon
UACC-257 melanoma = system: UACC-257 melanoma
CAKI-1 renal = system: CAKI-1 renal
SK-MEL-2 melanoma = system: SK-MEL-2 melanoma
HS 578T breast = system: HS 578T breast
BT-549 breast = system: BT-549 breast
LOX IMVI melanoma = system: LOX IMVI melanoma
NCI-H522 lung = system: NCI-H522 lung
NCI-H23 lung = system: NCI-H23 lung
NCI-H226 lung = system: NCI-H226 lung
SK-MEL-5 melanoma = system: SK-MEL-5 melanoma
UO-31 renal = system: UO-31 renal
COLO 205 colon = system: COLO 205 colon
SK-MEL-28 melanoma = system: SK-MEL-28 melanoma
T-47D breast = system: T-47D breast
NCI/ADR-RES ovarian = system: NCI/ADR-RES ovarian
DU-145 prostate = system: DU-145 prostate
SR leukemia = system: SR leukemia

## COC(=O)/C=C/c1cc(O)c2oc(-c3ccc(O)c(O)c3)c(C(=O)OC)c2c1
RXF 393 renal
  GI50: 0.523 µM
  TGI: 4.84 µM
MOLT-4 leukemia
  GI50: 0.462 µM
  TGI: 7.11 µM
SNB-19 CNS
  GI50: 0.356 µM
  TGI: 14.2 µM
RPMI-8226 leukemia
  GI50: 0.316 µM
  TGI: 1.75 µM
SNB-75 CNS
  GI50: 0.0376 µM
  TGI: 1.41 µM
ACHN renal
  GI50: 0.361 µM
  TGI: 10.4 µM
IGROV1 ovarian
  GI50: 0.543 µM
  TGI: 11.5 µM
SF-295 CNS
  GI50: 3.13 µM
  TGI: 11.7 µM
OVCAR-4 ovarian
  GI50: 0.901 µM
  TGI: 12 µM
HT29 colon
  GI50: 3.24 µM
  TGI: 11.5 µM
K-562 leukemia
  GI50: 0.0511 µM
  TGI: 26.9 µM
MCF7 breast
  GI50: 0.286 µM
  TGI: 9.75 µM
OVCAR-5 ovarian
  GI50: 3.56 µM
  TGI: 16.5 µM
A549 NSCLC
  GI50: 1.27 µM
  TGI: 14.1 µM
HOP-92 NSCLC
  GI50: 1.57 µM
  TGI: 11.3 µM
MDA-MB-231 breast
  GI50: 0.927 µM
  TGI: 15.8 µM
SF-268 CNS
  GI50: 1.52 µM
  TGI: 12.5 µM
U251 CNS
  GI50: 0.606 µM
  TGI: 13.4 µM
EKVX NSCLC
  GI50: 3.3 µM
  TGI: 16.6 µM
SN12C renal
  GI50: 0.576 µM
  TGI: 12.2 µM
HOP-62 NSCLC
  GI50: 0.442 µM
  TGI: 12.7 µM
OVCAR-3 ovarian
  GI50: 0.147 µM
  TGI: 3.43 µM
SK-OV-3 ovarian
  GI50: 1.13 µM
  TGI: 15.6 µM
MALME-3M melanoma
  GI50: 0.397 µM
  TGI: 14.4 µM
TK-10 renal
  GI50: 3.89 µM
  TGI: 16.9 µM
M14 melanoma
  GI50: 0.0698 µM
  TGI: 9.39 µM
HCT-15 colon
  GI50: 0.0672 µM
  TGI: 11.2 µM
A498 renal
  GI50: 1.95 µM
  TGI: 9.58 µM
HL-60(TB) leukemia
  GI50: 0.14 µM
  TGI: 1.52 µM
HCT-116 colon
  GI50: 0.329 µM
  TGI: 9.14 µM
UACC-62 melanoma
  GI50: 0.802 µM
  TGI: 5.96 µM
CCRF-CEM leukemia
  GI50: 0.402 µM
  TGI: > 21.8 µM
MDA-MB-435
  GI50: 0.0295 µM
  TGI: 0.108 µM
PC-3 prostate
  GI50: 0.437 µM
  TGI: 13.1 µM
HCC-2998 colon
  GI50: 2.09 µM
  TGI: 11.2 µM
OVCAR-8 ovarian
  GI50: 0.521 µM
  TGI: 13 µM
SF-539 CNS
  GI50: 0.159 µM
  TGI: 1.96 µM
NCI-H460 lung
  GI50: 2.66 µM
  TGI: 18.1 µM
786-0 renal
  GI50: 3.67 µM
  TGI: 16.3 µM
SW-620 colon
  GI50: 0.124 µM
  TGI: 14 µM
KM12 colon
  GI50: 0.439 µM
  TGI: 9.38 µM
UACC-257 melanoma
  GI50: 2.83 µM
  TGI: 16.5 µM
CAKI-1 renal
  GI50: 1.42 µM
  TGI: 15 µM
SK-MEL-2 melanoma
  GI50: 0.74 µM
  TGI: 13.2 µM
HS 578T breast
  GI50: 0.405 µM
  TGI: 9.18 µM
BT-549 breast
  GI50: 1.5 µM
  TGI: 11.9 µM
LOX IMVI melanoma
  GI50: 0.367 µM
  TGI: 10.3 µM
NCI-H522 lung
  GI50: 0.0472 µM
  TGI: 4.72 µM
NCI-H23 lung
  GI50: 0.43 µM
  TGI: 7.81 µM
NCI-H226 lung
  GI50: 3.85 µM
  TGI: 22.3 µM
SK-MEL-5 melanoma
  GI50: 0.221 µM
  TGI: 1.61 µM
UO-31 renal
  GI50: 1.11 µM
  TGI: 10.6 µM
COLO 205 colon
  GI50: 8.27 µM
  TGI: 23.6 µM
SK-MEL-28 melanoma
  GI50: 1.92 µM
  TGI: 11.1 µM
T-47D breast
  GI50: 0.577 µM
  TGI: 9.48 µM
NCI/ADR-RES ovarian
  GI50: 0.134 µM
  TGI: 6.63 µM
DU-145 prostate
  GI50: 0.369 µM
  TGI: 12 µM
SR leukemia
  GI50: 0.039 µM
  TGI: > 24.3 µM
